Assays:
Test in all cases: split-luciferase competition binding
RPS6KA6 KD1 (human) = RPS6KA6 KD1 (human) (UniProt Q9UK32); details: compound 10.0 µM
PRKCH (human) = PRKCH (human) (UniProt P24723); details: compound 10.0 µM
RPS6KA3 KD1 (human) = RPS6KA3 KD1 (human) (UniProt P51812); details: compound 10.0 µM
STK32B (human) = STK32B (human) (UniProt Q9NY57); details: compound 10.0 µM
PRKCE (human) = PRKCE (human) (UniProt Q02156); details: compound 10.0 µM
RPS6KA4 KD1 (human) = RPS6KA4 KD1 (human) (UniProt O75676); details: compound 10.0 µM
Sequence of RPS6KA4 KD1 (human) (O75676 whole entry, looked up): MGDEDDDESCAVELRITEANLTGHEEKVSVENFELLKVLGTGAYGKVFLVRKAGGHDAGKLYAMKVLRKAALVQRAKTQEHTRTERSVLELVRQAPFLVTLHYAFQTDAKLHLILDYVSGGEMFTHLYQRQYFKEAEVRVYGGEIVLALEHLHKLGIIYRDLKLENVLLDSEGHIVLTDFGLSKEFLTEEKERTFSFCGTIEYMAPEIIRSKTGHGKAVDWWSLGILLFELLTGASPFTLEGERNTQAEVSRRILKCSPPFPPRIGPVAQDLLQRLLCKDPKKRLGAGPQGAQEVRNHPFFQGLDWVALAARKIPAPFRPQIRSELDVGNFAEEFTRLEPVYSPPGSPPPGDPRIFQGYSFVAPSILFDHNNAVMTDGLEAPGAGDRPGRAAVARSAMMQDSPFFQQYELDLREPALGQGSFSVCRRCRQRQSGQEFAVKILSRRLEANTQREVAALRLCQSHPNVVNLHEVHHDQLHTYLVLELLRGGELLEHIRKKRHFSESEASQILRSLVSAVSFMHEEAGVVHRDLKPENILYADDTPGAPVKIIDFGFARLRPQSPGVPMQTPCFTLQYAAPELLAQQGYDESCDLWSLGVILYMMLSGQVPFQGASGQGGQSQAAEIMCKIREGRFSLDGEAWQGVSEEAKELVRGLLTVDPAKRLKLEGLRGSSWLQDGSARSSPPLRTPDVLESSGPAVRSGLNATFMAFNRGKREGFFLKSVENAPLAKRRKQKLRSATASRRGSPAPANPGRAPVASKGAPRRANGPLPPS

PRKACA (mouse) = details: compound 10.0 µM; accession and sequence are those of the human protein
AKT3 (human) = AKT3 (human) (UniProt Q9Y243); details: compound 10.0 µM
SGK2 (human) = SGK2 (human) (UniProt Q9HBY8); details: compound 10.0 µM
Sequence of SGK2 (human) (Q9HBY8 whole entry, looked up): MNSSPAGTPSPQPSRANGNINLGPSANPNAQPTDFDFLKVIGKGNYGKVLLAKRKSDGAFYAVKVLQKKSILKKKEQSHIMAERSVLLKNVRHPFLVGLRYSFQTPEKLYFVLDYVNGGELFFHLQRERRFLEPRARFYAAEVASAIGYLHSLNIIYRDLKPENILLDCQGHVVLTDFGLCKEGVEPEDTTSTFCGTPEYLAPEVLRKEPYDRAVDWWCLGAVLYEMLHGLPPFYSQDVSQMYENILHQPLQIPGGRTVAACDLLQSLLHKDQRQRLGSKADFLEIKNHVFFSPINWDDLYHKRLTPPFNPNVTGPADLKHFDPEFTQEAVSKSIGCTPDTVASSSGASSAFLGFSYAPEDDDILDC

PDPK1 (human) = PDPK1 (human) (UniProt O15530); details: compound 10.0 µM
Sequence of PDPK1 (human) (O15530 whole entry, looked up): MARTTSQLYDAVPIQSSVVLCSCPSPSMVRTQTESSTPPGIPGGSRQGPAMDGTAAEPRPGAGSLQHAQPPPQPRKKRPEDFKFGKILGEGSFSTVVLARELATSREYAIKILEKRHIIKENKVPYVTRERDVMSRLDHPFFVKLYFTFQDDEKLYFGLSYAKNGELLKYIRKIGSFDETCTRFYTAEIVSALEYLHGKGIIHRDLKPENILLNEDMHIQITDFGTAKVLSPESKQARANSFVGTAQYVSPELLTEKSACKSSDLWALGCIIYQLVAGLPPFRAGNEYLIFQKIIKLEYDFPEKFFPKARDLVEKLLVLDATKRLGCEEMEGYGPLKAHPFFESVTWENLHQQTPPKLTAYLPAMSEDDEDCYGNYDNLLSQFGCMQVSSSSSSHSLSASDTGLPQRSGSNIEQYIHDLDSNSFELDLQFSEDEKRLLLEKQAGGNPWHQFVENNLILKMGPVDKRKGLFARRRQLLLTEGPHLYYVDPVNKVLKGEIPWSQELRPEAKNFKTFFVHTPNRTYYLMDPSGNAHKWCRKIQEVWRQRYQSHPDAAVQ

RPS6KA2 KD1 (human) = RPS6KA2 KD1 (human) (UniProt Q15349); details: compound 10.0 µM
RPS6KA1 KD1 (human) = RPS6KA1 KD1 (human) (UniProt Q15418); details: compound 10.0 µM
AURKA (human) = AURKA (human) (UniProt O14965); details: compound 10.0 µM
Sequence of AURKA (human) (O14965 whole entry, looked up): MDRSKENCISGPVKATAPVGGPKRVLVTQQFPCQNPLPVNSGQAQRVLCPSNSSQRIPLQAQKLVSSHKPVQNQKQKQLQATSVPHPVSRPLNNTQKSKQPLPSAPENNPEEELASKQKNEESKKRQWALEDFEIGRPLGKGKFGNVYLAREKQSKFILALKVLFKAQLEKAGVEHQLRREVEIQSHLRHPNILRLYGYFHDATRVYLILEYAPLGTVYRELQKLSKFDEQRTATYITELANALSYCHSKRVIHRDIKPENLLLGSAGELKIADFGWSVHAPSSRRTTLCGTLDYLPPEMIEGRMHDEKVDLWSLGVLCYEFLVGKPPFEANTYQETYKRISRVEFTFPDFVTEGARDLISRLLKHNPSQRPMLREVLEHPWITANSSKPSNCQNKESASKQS

PRKX (human) = PRKX (human) (UniProt P51817); details: compound 10.0 µM
Sequence of PRKX (human) (P51817 whole entry, looked up): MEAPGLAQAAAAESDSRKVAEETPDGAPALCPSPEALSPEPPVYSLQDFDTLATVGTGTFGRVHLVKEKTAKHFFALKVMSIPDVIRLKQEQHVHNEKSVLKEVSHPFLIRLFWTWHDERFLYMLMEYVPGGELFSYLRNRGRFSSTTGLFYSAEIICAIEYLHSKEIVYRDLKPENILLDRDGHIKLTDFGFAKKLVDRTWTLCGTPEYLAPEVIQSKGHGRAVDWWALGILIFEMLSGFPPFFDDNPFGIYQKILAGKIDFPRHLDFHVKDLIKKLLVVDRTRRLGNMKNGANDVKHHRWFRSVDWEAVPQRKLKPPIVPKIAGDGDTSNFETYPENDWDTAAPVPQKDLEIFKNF

AURKC (human) = AURKC (human) (UniProt Q9UQB9); details: compound 10.0 µM
DMPK (human) = DMPK (human) (UniProt Q09013); details: compound 10.0 µM
PRKCQ (human) = PRKCQ (human) (UniProt Q04759); details: compound 10.0 µM
AKT2 (human) = AKT2 (human) (UniProt P31751); details: compound 10.0 µM
RPS6KA5 KD1 (human) = RPS6KA5 KD1 (human) (UniProt O75582); details: compound 10.0 µM
Sequence of RPS6KA5 KD1 (human) (O75582 whole entry, looked up): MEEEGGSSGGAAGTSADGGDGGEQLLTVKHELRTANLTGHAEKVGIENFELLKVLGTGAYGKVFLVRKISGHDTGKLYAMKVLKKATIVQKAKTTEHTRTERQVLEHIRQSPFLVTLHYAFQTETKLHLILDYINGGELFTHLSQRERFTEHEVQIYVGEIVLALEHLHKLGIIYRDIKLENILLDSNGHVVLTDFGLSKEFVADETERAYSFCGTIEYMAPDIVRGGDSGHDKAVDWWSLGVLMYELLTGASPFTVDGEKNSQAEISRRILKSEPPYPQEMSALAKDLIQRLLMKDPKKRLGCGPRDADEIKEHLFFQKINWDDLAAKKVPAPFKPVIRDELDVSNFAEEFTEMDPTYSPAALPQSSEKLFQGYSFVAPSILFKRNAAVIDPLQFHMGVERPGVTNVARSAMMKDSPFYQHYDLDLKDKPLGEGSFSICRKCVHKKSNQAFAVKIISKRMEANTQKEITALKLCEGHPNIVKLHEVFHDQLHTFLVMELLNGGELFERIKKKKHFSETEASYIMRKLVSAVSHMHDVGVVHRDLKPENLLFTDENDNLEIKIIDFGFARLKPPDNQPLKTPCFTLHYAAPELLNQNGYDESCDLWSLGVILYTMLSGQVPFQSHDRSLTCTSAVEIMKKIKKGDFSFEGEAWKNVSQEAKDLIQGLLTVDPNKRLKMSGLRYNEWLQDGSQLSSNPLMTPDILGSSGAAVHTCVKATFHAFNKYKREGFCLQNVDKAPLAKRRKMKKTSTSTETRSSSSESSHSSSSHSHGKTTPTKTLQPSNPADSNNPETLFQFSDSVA

PRKCG (human) = PRKCG (human) (UniProt P05129); details: compound 10.0 µM
PRKCI (human) = PRKCI (human) (UniProt P41743); details: compound 10.0 µM
Sequence of PRKCI (human) (P41743 whole entry, looked up): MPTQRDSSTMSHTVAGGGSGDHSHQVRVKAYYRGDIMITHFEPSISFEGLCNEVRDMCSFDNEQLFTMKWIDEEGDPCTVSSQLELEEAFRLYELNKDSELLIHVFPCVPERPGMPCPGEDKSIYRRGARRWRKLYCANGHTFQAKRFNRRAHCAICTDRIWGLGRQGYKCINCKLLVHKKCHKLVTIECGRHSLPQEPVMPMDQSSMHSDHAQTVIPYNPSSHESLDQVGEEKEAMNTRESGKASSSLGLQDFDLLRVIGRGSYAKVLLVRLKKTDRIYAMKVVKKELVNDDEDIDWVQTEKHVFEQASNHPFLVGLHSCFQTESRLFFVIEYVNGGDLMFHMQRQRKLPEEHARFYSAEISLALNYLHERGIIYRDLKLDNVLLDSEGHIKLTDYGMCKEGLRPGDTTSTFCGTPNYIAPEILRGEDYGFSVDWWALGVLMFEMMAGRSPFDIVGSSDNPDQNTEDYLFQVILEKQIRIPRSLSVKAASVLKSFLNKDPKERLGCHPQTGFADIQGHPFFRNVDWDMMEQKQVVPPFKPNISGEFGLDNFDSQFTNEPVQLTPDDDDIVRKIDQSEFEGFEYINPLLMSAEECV

PRKACB (human) = PRKACB (human) (UniProt P22694); details: compound 10.0 µM
AURKB (human) = AURKB (human) (UniProt Q96GD4); details: compound 10.0 µM
Sequence of AURKB (human) (Q96GD4 whole entry, looked up): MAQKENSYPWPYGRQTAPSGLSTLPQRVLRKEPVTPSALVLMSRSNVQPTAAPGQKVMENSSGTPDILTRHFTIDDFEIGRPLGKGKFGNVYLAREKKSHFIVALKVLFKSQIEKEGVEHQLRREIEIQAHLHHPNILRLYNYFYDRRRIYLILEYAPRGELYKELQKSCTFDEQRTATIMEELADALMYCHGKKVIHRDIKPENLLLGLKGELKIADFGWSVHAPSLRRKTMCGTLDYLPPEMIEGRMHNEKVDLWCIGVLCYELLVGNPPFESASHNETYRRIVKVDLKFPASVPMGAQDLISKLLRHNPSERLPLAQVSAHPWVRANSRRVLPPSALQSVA

SGK3 (human) = SGK3 (human) (UniProt Q96BR1); details: compound 10.0 µM
AKT1 (human) = AKT1 (human) (UniProt P31749); details: compound 10.0 µM
PKN1 (human) = PKN1 (human) (UniProt Q16512); details: compound 10.0 µM
PRKCD (human) = PRKCD (human) (UniProt Q05655); details: compound 10.0 µM

SMILES | inhibition (RPS6KA6 KD1 (human)) [%] | inhibition (PRKCH (human)) [%] | inhibition (RPS6KA3 KD1 (human)) [%] | inhibition (STK32B (human)) [%] | inhibition (PRKCE (human)) [%] | inhibition (RPS6KA4 KD1 (human)) [%] | inhibition (PRKACA (mouse)) [%] | inhibition (AKT3 (human)) [%] | inhibition (SGK2 (human)) [%] | inhibition (PDPK1 (human)) [%] | inhibition (RPS6KA2 KD1 (human)) [%] | inhibition (RPS6KA1 KD1 (human)) [%] | inhibition (AURKA (human)) [%] | inhibition (PRKX (human)) [%] | inhibition (AURKC (human)) [%] | inhibition (DMPK (human)) [%] | inhibition (PRKCQ (human)) [%] | inhibition (AKT2 (human)) [%] | inhibition (RPS6KA5 KD1 (human)) [%] | inhibition (PRKCG (human)) [%] | other results
N#C/C(=C\c1ccc(O)c(O)c1)C(N)=S | 0 | 0 | 0 | 1 | 0 | 0 | 4 | 0 | 0 | 0 | 0 | 0 | 1 | 0 | 0 | 0 | 0 | 0 | 0 | 0 | inhibition (PRKCI (human)): 0%; inhibition (PRKACB (human)): 0%; inhibition (AURKB (human)): 0%; inhibition (SGK3 (human)): 0%; inhibition (AKT1 (human)): 0%; inhibition (PKN1 (human)): 5%; inhibition (PRKCD (human)): 0%
Cn1cnc2c(NCc3ccccc3)nc(NCCO)nc21 | 0 | 0 | 0 | 0 | 0 | 0 | 5 | 0 | 0 | 0 | 0 | 0 | 0 | 7 | 0 | 0 | 0 | 0 | 0 | 0 | inhibition (PRKCI (human)): 0%; inhibition (PRKACB (human)): 0%; inhibition (AURKB (human)): 4%; inhibition (SGK3 (human)): 0%; inhibition (AKT1 (human)): 5%; inhibition (PKN1 (human)): 6%; inhibition (PRKCD (human)): 3%
c1ccc(-c2n[nH]cc2-c2ccnc3ccccc23)nc1 | 0 | 0 | 0 | 8 | 5 | 0 | 1 | 0 | 0 | 0 | 0 | 0 | 0 | 5 | 6 | 3 | 1 | 0 | 0 | 4 | inhibition (PRKCI (human)): 0%; inhibition (PRKACB (human)): 0%; inhibition (AURKB (human)): 25%; inhibition (SGK3 (human)): 0%; inhibition (AKT1 (human)): 0%; inhibition (PKN1 (human)): 7%; inhibition (PRKCD (human)): 0%
CC[C@@H](CO)Nc1nc(NCc2ccccc2)c2ncn(C(C)C)c2n1 | 0 | 0 | 0 | 0 | 0 | 0 | 0 | 0 | 0 | 0 | 0 | 20 | 0 | 0 | 0 | 0 | 0 | 0 | 0 | 0 | inhibition (PRKCI (human)): 0%; inhibition (PRKACB (human)): 0%; inhibition (AURKB (human)): 0%; inhibition (SGK3 (human)): 0%; inhibition (AKT1 (human)): 0%; inhibition (PKN1 (human)): 0%; inhibition (PRKCD (human)): 2%

Further lines, with some results ahead:

inhibition (RPS6KA6 KD1 (human)) [%] | inhibition (PRKCH (human)) [%] | inhibition (RPS6KA3 KD1 (human)) [%] | inhibition (STK32B (human)) [%] | inhibition (PRKCE (human)) [%] | inhibition (RPS6KA4 KD1 (human)) [%] | inhibition (PRKACA (mouse)) [%] | inhibition (AKT3 (human)) [%] | inhibition (SGK2 (human)) [%] | inhibition (PDPK1 (human)) [%] | inhibition (RPS6KA2 KD1 (human)) [%] | inhibition (RPS6KA1 KD1 (human)) [%] | inhibition (AURKA (human)) [%] | inhibition (PRKX (human)) [%] | inhibition (AURKC (human)) [%] | inhibition (DMPK (human)) [%] | inhibition (PRKCQ (human)) [%] | inhibition (AKT2 (human)) [%] | inhibition (RPS6KA5 KD1 (human)) [%] | inhibition (PRKCG (human)) [%] | SMILES | other results
0 | 1 | 0 | 0 | 4 | 3 | 0 | 0 | 0 | 0 | 0 | 0 | 2 | 2 | 14 | 4 | 0 | 0 | 2 | 0 | Nc1ccc(-c2cccc3c(=O)cc(N4CCOCC4)oc23)cc1 | inhibition (PRKCI (human)): 0%; inhibition (PRKACB (human)): 0%; inhibition (AURKB (human)): 7%; inhibition (SGK3 (human)): 0%; inhibition (AKT1 (human)): 2%; inhibition (PKN1 (human)): 0%; inhibition (PRKCD (human)): 0%
0 | 0 | 0 | 0 | 3 | 0 | 0 | 0 | 0 | 0 | 7 | 0 | 0 | 7 | 16 | 7 | 4 | 0 | 0 | 0 | CCN(CC)CCCCN1c2ccccc2Oc2ccc(Cl)cc21 | inhibition (PRKCI (human)): 2%; inhibition (PRKACB (human)): 0%; inhibition (AURKB (human)): 8%; inhibition (SGK3 (human)): 0%; inhibition (AKT1 (human)): 0%; inhibition (PKN1 (human)): 6%; inhibition (PRKCD (human)): 0%
12 | 0 | 6 | 15 | 0 | 0 | 0 | 0 | 7 | 0 | 0 | 2 | 11 | 0 | 6 | 0 | 0 | 0 | 0 | 0 | COc1cc(CC2C(=O)OC[C@@H]2Cc2ccc(OC)c(OC)c2)ccc1O (stereo partly drawn) | inhibition (PRKCI (human)): 0%; inhibition (PRKACB (human)): 1%; inhibition (AURKB (human)): 0%; inhibition (SGK3 (human)): 1%; inhibition (AKT1 (human)): 0%; inhibition (PKN1 (human)): 0%; inhibition (PRKCD (human)): 0%
0 | 0 | 0 | 0 | 12 | 0 | 4 | 0 | 0 | 0 | 0 | 0 | 0 | 0 | 0 | 0 | 0 | 0 | 0 | 0 | Cc1ccccc1C(=O)c1ccc(Nc2ccc(Br)cc2N)cc1Cl | inhibition (PRKCI (human)): 0%; inhibition (PRKACB (human)): 0%; inhibition (AURKB (human)): 0%; inhibition (SGK3 (human)): 0%; inhibition (AKT1 (human)): 0%; inhibition (PKN1 (human)): 0%; inhibition (PRKCD (human)): 0%
0 | 0 | 0 | 0 | 6 | 0 | 0 | 0 | 0 | 0 | 0 | 0 | 0 | 0 | 5 | 0 | 0 | 0 | 0 | 0 | O=c1cc(N2CCOCC2)nc2c3ccccc3ccn12 | inhibition (PRKCI (human)): 0%; inhibition (PRKACB (human)): 0%; inhibition (AURKB (human)): 0%; inhibition (SGK3 (human)): 0%; inhibition (AKT1 (human)): 0%; inhibition (PKN1 (human)): 0%; inhibition (PRKCD (human)): 0%
